Laboratory results as given in US12133900B2, “Synthesis and composition of amino acid linking groups conjugated to compounds used for the targeted imaging of tumors” (Purdue Research Foundation, priority 2013, dated 2024).
“Also recorded” adds a separate entry of the source.

What was measured:
[1] = biological target: T1, folate receptor (FR-α) on KB cells (Homo sapiens, UniProt P15328); experiment: Competition binding with [3H]-folic acid on KB cells; details: for Kd: 10 nM [3H]-folic acid, 1 h at 37 °C, read-out: dissociation constants (KD); for Kd / affinity and specificity for folate receptor (words): KB cells; for Relative binding affinities: relative affinity of folic acid=1, <1 weaker
T1 construct: KB cells that overexpress FR-α were seeded in 24-well (100,000 cells/well) Falcon plates; host or cells: KB cells (human; described as a HeLa derivative)
T1 sequence (P15328 25-234): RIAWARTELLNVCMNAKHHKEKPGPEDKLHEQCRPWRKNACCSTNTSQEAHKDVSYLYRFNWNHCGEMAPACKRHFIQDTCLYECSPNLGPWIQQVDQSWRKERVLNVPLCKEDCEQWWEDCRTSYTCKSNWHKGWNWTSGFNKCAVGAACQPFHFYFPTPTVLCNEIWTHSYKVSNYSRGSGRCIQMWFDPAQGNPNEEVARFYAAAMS
Procedure: KB cells that overexpress FR-α were seeded in 24-well (100,000 cells/well) Falcon plates and allowed to form monolayers over a period of 24 h. […] After incubating for 1 hour at 37° C., cells were rinsed with PBS (2×0.5 mL) and 1M trichloroacetic acid (1×0.5 mL) to remove any unbound radioactive materials. After adding 1% sodium dodecylsulfate in PBS (0.5 mL), cells were transferred into individual scintillation vials containing Ecolume scintillation cocktail (3.0 mL) and counted in a liquid scintillation analyzer. The relative binding affinities were calculated using a plot of cell bound radioactivity versus the concentration of the test article using Graph Pad Prism 4.
(§1) KB cells that overexpress FR-α were seeded in 24-well (100,000 cells/well) Falcon plates (BD Biosciences, CA) and allowed to form monolayers over a period of 12 h. […] After incubating for 1 h at 37° C., cells were rinsed with PBS (3×0.5 mL, Gibco, NY) to remove any unbound radioactive materials. After adding 0.25 M sodium hydroxide (0.5 mL) and incubating for 12 h at 4° C., cells were transferred into individual scintillation vials containing Ecolite scintillation cocktail (3.0 mL, MP Biomedicals, OH) and counted in a liquid scintillation analyzer (Packard). The relative binding affinities were calculated using a plot of % cell bound radioactivity versus the log concentration of the test article using GraphPad Prism 4.
as §1, with “12 hours.” for “12 h.”, “1 hour” for “1 h”, “12 hours” for “12 h”

[2] = system: folate receptor positive KB tumor xenografts; experiment: Whole body imaging and tissue biodistribution, KB tumor xenografts; assay type: in vivo, mice; details: for tumor fluorescence intensity, direct comparison / whole body imaging: accumulation: 10 nmol i.v.; for tumor fluorescence intensity, direct comparison / whole body imaging: accumulation / tumor fluorescence: 2 h; for tumor fluorescence: 10 nmol
Procedure: (§2) Seven-week-old female nu/nu mice were inoculated subcutaneously with KB cells (1.0×10^6/mouse in folate free RPM11640 medium) on the shoulder. […] […] Whole body imaging (intact tumor) experiments were then performed using a Caliper IVIS Lumina II Imaging Station with Living Image 4.0 software (PerkinElmer Inc, MA). Settings for imaging:—lamp level: medium; excitation: 745 nm; emission: 830 nm; epi illumination; binning: 4 (M), FOV=12.5; f-stop=2; acquisition time=1 s.
(§3) Following whole body imaging, animals were dissected and selected tissues (heart, lung, liver, spleen, kidneys, stomach, small intestine, large intestine, muscle, skin, tumor) were analyzed for fluorescence activity using IVIS imager as before. Settings for imaging: lamp level: medium; excitation: 745 nm; emission: 830 nm; epi illumination; binning: 4 (M), FOV=12.5; f-stop=2; acquisition time=1 s.
as §2, with “shoulder. Growth of the tumors was measured in perpendicular directions every 2 days using a caliper (body weights were monitored on the same schedule), and the volumes of the tumors were calculated as 0.5×L×W^2 (L=longest axis and W=axis perpendicular to L in millimeters).” for “shoulder.”, “ICG (830 nm);” for “830 nm;”
as §3, with “skin, and” for “skin,”, “imaging:—lamp” for “imaging: lamp”, “emission:ICG (830 nm);” for “emission: 830 nm;”
Five-week-old female nu/nu mice were inoculated subcutaneously with KB cells (1.0×10^6/mouse in RPMI medium) on their shoulders. Growth of the tumors was measured in two perpendicular directions every 2 days using a caliper (body weights were monitored on the same schedule), and the volumes of the tumors were calculated as 0.5×L×W^2 (L) longest axis and W) axis perpendicular to L in millimeters). Once tumors reached between 400 and 500 mm3 in volume, animals were treated with folate receptor-targeted NIR dye conjugate (10 nmol) in phosphate buffered saline (100 μL). […]
Animal imaging experiments were performed using a Caliper Ivis Lumina II Imaging Station with Living Image 4.0 software. Settings for imaging Alexa Fluor 647 and DyLight 680 conjugates: lamp level: high; excitation: 605; emission: Cy5.5; epi illumination; binning: (M) 4; FOV=7.5; f-stop=4; acquisition time=1 s. Settings for imaging DyLight 750 and IR800CW conjugates: lamp level: high; excitation: 745; emission: ICG; epi illumination; binning: (M) 4, FOV=12.5; f-stop=4; acquisition time=1 s.
Seven-week-old female nu/nu mice were inoculated subcutaneously with KB cells (1.0×10^6/mouse in folate free RPM11640 medium) on the shoulder. Growth of the tumors was measured in perpendicular directions every 2 days using a caliper (body weights were monitored on the same schedule), and the volumes of the tumors were calculated as 0.5×L×W^2 (L=longest axis and W=axis perpendicular to L in millimeters). Once tumors reached between 400 and 500 mm3 in volume, animals (5 mice/group) were intravenously injected with 10 nmol of OTL-0038 or OTL-0039 in phosphate buffered saline (100 μL). After 2.5 hours, animals were euthanized by CO2 asphyxiation. Whole body imaging (intact tumor) experiments were then performed using a Caliper IVIS Lumina II Imaging Station with Living Image 4.0 software (PerkinElmer Inc, MA). […]

[3] = Chemical and optical properties of NIR dyes (Table 1); assay type: physicochemical
[4] = Toxicity in healthy nude mice; assay type: in vivo
Procedure: Seven-week-old healthy female nude mice (5 mice/group) were administered with 1 μmol of freshly prepared OTL-0038 or OTL-0039 dissolved in 100 μL of phosphate buffered saline via tail vein injection on day zero. Body weights and clinical observations were monitored prior to dosing and daily thereafter from day zero to 7. Any animals with a body weight loss of 20% or more over two consecutive days would be euthanized, but this was not necessary. The animals were euthanized by CO2 asphyxiation on day 7 and selected tissues (brain, heart, lung, liver, spleen, kidney, stomach, small intestine, large intestine, muscle, skin) were collected into vials containing 4% formalin. Formalin fixed tissues were sectioned into 10 μm thick sections and mounted onto Superfrost Plus™ slides (Fisher Scientific, Pittsburgh Pa.). After staining the slides with H&E, immunohistochemistry (IHC) analysis of the tissues was conducted to determine to the toxicity of OTL-0038 and OTL-0039.

Molecule	Kd [1] [nM]	Relative binding affinities [1]	whole body imaging: accumulation [2]	also measured
FA-EDA-ZW800 [OTL-0003]	23.3	0.356	accumulated predominantly in the folate receptor positive tumors	tumor fluorescence intensity, direct comparison [2]: highest tumor-accumulated fluorescence
FA-EDA-IR800 [OTL-0002]	19.3	0.430	accumulated predominantly in the folate receptor positive tumors	tumor fluorescence intensity, direct comparison [2]: brighter (higher fluorescence intensity); also recorded: highest tumor-accumulated fluorescence
Pteroyl DAP-S0456 [OTL-0056]	95.2	0.078		
Pte-homo-Tyr-S0456 [OTL-0046]	13.8	0.580	accumulated predominantly in the folate receptor-positive tumors; also recorded: mainly accumulated in the tumors	
Pte-Tyr-13C-S0456 [OTL-0040]	27.6	0.290		
FA-EDA-Kodak2 [OTL-0004]	30.6	0.271	did not accumulated in the tumors	tumor fluorescence intensity, direct comparison [2]: very low specificity for the tumor and low fluorescence
FA-EDA-LS288 [OTL-0001]	30.7	0.270	accumulated predominantly in the folate receptor positive tumors	
CC1(C)C(/C=C/C=C/C=C/C=C2\N(CCCCS(=O)(=O)O)c3ccc4ccccc4c3C2(C)C)=[N+](CCCCS(=O)(=O)[O-])c2ccc3ccccc3c21 [ICG, indocyanine green]				E [3]: 121000 M⁻¹ cm⁻¹; Q (%) [3]: 9.3%; Stokes Shift (nm) [3]: 15 nm; λem (nm) [3]: 807 nm; λex (nm) [3]: 822 nm
CC1(C)C(/C=C/C2=C(Oc3ccc(S(=O)(=O)O)cc3)C(=C/C=C3/N(CCCCS(=O)(=O)O)c4ccc(S(=O)(=O)[O-])cc4C3(C)C)/CCC2)=[N+](CCCCCC(=O)O)c2ccc(S(=O)(=O)O)cc21 [IR800CW]				E [3]: 237000 M⁻¹ cm⁻¹; Q (%) [3]: 14.2%; Stokes Shift (nm) [3]: 14 nm; λem (nm) [3]: 786 nm; λex (nm) [3]: 800 nm
CC1(C)C(=CC=C2CCCC(C=CC3=[N+](CCC[N+](C)(C)C)c4ccc(S(=O)(=O)O)cc4C3(C)C)=C2Oc2ccc(CCC(=O)O)cc2)N(CCC[N+](C)(C)C)c2ccc(S(=O)(=O)O)cc21 [ZW80o]				E [3]: 249000 M⁻¹ cm⁻¹; Q (%) [3]: 15.1%; Stokes Shift (nm) [3]: 16 nm; λem (nm) [3]: 772 nm; λex (nm) [3]: 788 nm
Pte-NHNH-Tyr-(OAc)-S0456 [OTL-0045]				affinity and specificity for folate receptor (words) [1]: All the compounds have an affinity for folate receptor except OTL-0044 and OTL-0045
Pte-Tyramine-S0456 [OTL-0049]	30.2	0.265		
CC1(C)C(=CC=C2CCCC(C=CC3=[N+](CCCCS(=O)(=O)[O-])c4ccc(S(=O)(=O)O)cc4C3(C)C)=C2Oc2ccc(C[C@@H](NC(=O)c3ccc(NCc4cnc5nc(N)[nH]c(=O)c5n4)cc3)C(=O)O)cc2)N(CCCCS(=O)(=O)O)c2ccc(S(=O)(=O)O)cc21 [OTL-0039, PTE-D-Tyr-S0456]		0.09		toxicity (conclusion) ([4]; 1 μmol (1000× clinical dose)): not toxic to animals; skin colour immediately after the injection ([4]; 1 μmol tail vein): became green; activity and behaviour ([4]; 1 μmol tail vein, day 0 to 7): behaved normally throughout the study; body weights over the course of the study ([4]; 1 μmol tail vein, day 0 to 7): remained stable; lesions in tissues (IHC data) ([4]; 1 μmol tail vein, day 7): no lesions identified in any tissues; affinity and specificity for folate receptor (words) [1]: lower affinity for folate receptor when compared to folic acid and OTL-0038
Pte-N(Me)-Tyr-S0456 [OTL-0044]			accumulated predominantly in the folate receptor-positive tumors; also recorded: mainly accumulated in the tumors	affinity and specificity for folate receptor (words) [1]: All the compounds have an affinity for folate receptor except OTL-0044 and OTL-0045
Pteroyl-Cys-S0456 [OTL-0054]			accumulated predominantly in the folate receptor-positive tumors	
Pte-Tyr-2H(Deuterated)-S0456 [OTL-0042]	61.7	0.130		
Pteroyl-Lys-S0456 [OTL-0053]				tumor fluorescence ([2]; excited at 605-675 nm, emitted at ICG (830 nm)): bright tumor fluorescence; tumor fluorescence ([2]; excited at 710-745 nm, emitted at ICG): only a moderate brightness; Stoke's shift ([2]; in vivo imaging): longer Stoke's shift
Pte-Tyr-(OBn)-S0456 [OTL-0043]	14.8	0.177		
Pte-p-homo-Tyr-S0456 [OTL-0047]	12.8	0.625	accumulated predominantly in the folate receptor-positive tumors; also recorded: mainly accumulated in the tumors	
